# Earlier results, collected in patent US20250339386A1, “VITAMIN K2 FOR USE IN TREATMENT OF CORONARY ARTERY CALCIFICATION” (Region Syddanmark, priority 2022, published 2025).
# How the values were obtained:
# [1] = test system: human monocyte-derived macrophages; details: cells pretreated; dose response relationship
# CAC progression = details: asymptomatic older men and women 60-80 years, with recommended calcium and vitamin D
# [2] = test system: aortic valve calcification; details: high-dose supplementation; male subjects with aortic valve calcification score above 300 arbitrary units
compound,measurement,setting,value
CC(C)=CCC/C(C)=C/CC/C(C)=C/CC/C(C)=C/CC/C(C)=C/CC/C(C)=C/CC/C(C)=C/CC1=C(C)C(=O)c2ccccc2C1=O [menaquinone-7],"Cytokine release (TNF-α, IL-1α, IL-1β)",[1],inhibition of cytokine release
"CC1=C(C/C=C(\C)CCC[C@H](C)CCC[C@H](C)CCCC(C)C)C(=O)c2ccccc2C1=O [vitamin K1, phylloquinone]",Progression of existing CAC,CAC progression,reduced the progression of existing CAC
Menaquinone [vitamin K2],Aortic valve calcification progression,[2],non-significantly decreased
